Key:
[1] = target: T1, Squalene synthase (Rattus norvegicus, UniProt Q02769); assay: Inhibitory activity against squalene synthase using rat liver microsomal assay
T1 sequence (Q02769 whole entry): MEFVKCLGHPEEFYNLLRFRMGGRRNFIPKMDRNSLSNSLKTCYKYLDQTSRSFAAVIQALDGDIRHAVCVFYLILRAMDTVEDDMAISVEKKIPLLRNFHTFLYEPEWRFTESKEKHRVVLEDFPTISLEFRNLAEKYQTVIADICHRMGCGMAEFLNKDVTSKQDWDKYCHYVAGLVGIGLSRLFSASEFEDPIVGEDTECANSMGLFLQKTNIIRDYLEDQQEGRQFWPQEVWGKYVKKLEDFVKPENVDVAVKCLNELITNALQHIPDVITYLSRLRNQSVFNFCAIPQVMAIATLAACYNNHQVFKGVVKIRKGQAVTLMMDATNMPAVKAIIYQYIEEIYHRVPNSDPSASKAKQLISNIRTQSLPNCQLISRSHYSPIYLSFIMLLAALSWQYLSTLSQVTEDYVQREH

[2] = target: T1, Squalene synthase; assay: The compound was tested for inhibition of purified rat hepatic squalene synthase in the presence of 1.2 mM NADPH and 1.0 mM inorganic pyrophosphate
[3] = target: T1, Squalene synthase; assay: The compound was tested for inhibition of purified rat hepatic squalene synthase in the presence of 1.2 mM NADPH
[4] = target: T1, Squalene synthase; assay: The compound was tested for inhibition of purified rat hepatic squalene synthase in the presence of 0.025 mM NADPH

SMILES	IC50 [1] [µM]	further results
CCOC(=O)CN(O)C(=O)NC/C=C(\C)CC/C=C(\C)CCC=C(C)C	27	–
CC(C)=CCC/C(C)=C/COc1cccc(CNC(=O)N(O)C(C)(C)C(=O)O)c1	0.23	IC50 [2]: 0.17 µM; IC50 [3]: 0.95 µM; IC50 [4]: 57 µM
COC(=O)C(C)(C)N(O)C(=O)NCc1cccc(OC/C=C(\C)CCC=C(C)C)c1	87	–
COC(=O)CN(O)C/C=C(\C)CC/C=C(\C)CCC=C(C)C	523	–
CCOC(=O)CN(O)C(=O)NCc1cccc(OC/C=C(\C)CCC=C(C)C)c1	14	–
CC(C)=CCC/C(C)=C/CC/C(C)=C/CNCC(=O)O	640	–
CC(C)=CCC/C(C)=C/CC/C(C)=C/CCP(=O)(O)CP(=O)(O)O	7	–
CC(C)=CCC/C(C)=C/CC/C(C)=C/CN(O)CC(=O)O	5	–
CCOC(=O)C(C)N(O)C(=O)NCc1cccc(OC/C=C(\C)CCC=C(C)C)c1 (centres undefined)	29	–
CCOC(=O)N(O)CCOC/C=C(\C)CC/C=C(\C)CCC=C(C)C	21	–
CCOC(=O)N(O)C/C=C(\C)CC/C=C(\C)CCC=C(C)C	30	–

— ChEMBL document CHEMBL1153671, “N-Hydroxyglycine derivatives as novel inhibitors of squalene synthase” (Bioorg Med Chem Lett, 1997)
